Reference: publication PMC7424068, “Design, Synthesis, and Biological Evaluation of Novel Thiazolidinone-Containing Quinoxaline-1,4-di-N-oxides as Antimycobacterial and Antifungal Agents” (Frontiers in Chemistry, 2020)
Values after ≈ are worked out from the molar mass of the structure shown. Read-outs that look alike come from different tables or passages of the source.

What was measured:
C. albicans (ATCC90028) = assay: Antifungal activity, broth microdilution; format: cell-based, Candida albicans; conditions: Candida albicans ATCC 90028, read-out: MIC
Method: (§1) All synthesized compounds and the positive control drugs amphotericin B and ketoconazole were tested for their in vitro antifungal activity. Antifungal activity was evaluated against four fungi, C. albicans (ATCC90028), C. tropicalis (ATCC7349), A. fumigatus (3.5352), and C. neoformans (2.3201), by broth microdilution according to the protocols from the NCCLS (Jiang et al., [2014]). Briefly, all tested compounds were dissolved in DMSO, and the solutions were diluted with fresh broth medium. All of the fungi-seeded broth (1 × 10^5 colony-forming units [CFU]/mL) were prepared in RPMI 1640 medium and added into the serially diluted drug solution. The tubes were incubated at 28°C, and the MIC (μg/mL) was recorded 72–96 h post-incubation. Broth control (without fungi), growth controls (with fungi and without drug), solvent (DMSO) control, and drug control for both test drugs and standard drugs were set under identical conditions. The minimum drug concentration in the tubes in which no apparent growth of the organism was observed represented the MIC of the compounds.

Mtb H37Rv (ATCC27294) = assay: Antimycobacterial activity, microplate Alamar blue assay (MABA); format: cell-based, Mycobacterium tuberculosis
C. tropicalis (ATCC7349) = assay: Antifungal activity, broth microdilution; format: cell-based; conditions: Candida tropicalis, C. tropicalis ATCC 7349, read-out: MIC
Method: as §1

C. neoformans (2.3201) = assay: Antifungal activity, broth microdilution; format: cell-based; conditions: Cryptococcus neoformans; C. neoformans 2.3201; read-out: MIC
Method: as §1

A. fumigatus (3.5352) = assay: Antifungal activity, broth microdilution; format: cell-based; conditions: Aspergillus fumigatus; A. fumigatus 3.5352; read-out: MIC
Method: as §1

[1] = Mycobacterium tuberculosis, Mtb H37Rv, MABA assay, read-out: MIC
[2] = Mycobacterium tuberculosis, Mtb H37Rv, repeated in Table 5 for the 3D-QSAR models, read-out: MIC
[3] = Mycobacterium tuberculosis, experimental pMIC, Mtb H37Rv, Table 5, read-out: pMIC exp (converted)

Row | SMILES | MIC (C. albicans (ATCC90028)) [µg/mL] | MIC (Mtb H37Rv (ATCC27294); [1]) [µg/mL] | MIC (Mtb H37Rv (ATCC27294); [2]) [µg/mL] | MIC (Mtb H37Rv (ATCC27294); [3]) [µM] | MIC (C. tropicalis (ATCC7349)) [µg/mL] | MIC (C. neoformans (2.3201)) [µg/mL] | MIC (A. fumigatus (3.5352)) [µg/mL] | melting point [°C] | MIC (Mtb H37Rv (ATCC27294); Mycobacterium tuberculosis) [µg/mL] | MIC (Mtb H37Rv (ATCC27294); Mtb H37Rv, MABA assay) [µg/mL]
1 | Cc1ccc(N2C(=O)CSC2c2c[n+]([O-])c3ccccc3[n+]2[O-])cc1 (centres unmarked) [2b, 2-(3′-P-methylphenyl-4′(5H)-thiazolidinone)-quinoxaline-1,4-di-N-oxide] | 16 (≈ 45.3 µM) | 12.5 | 12.5 | 35.4 | 8 (≈ 22.6 µM) | 32 (≈ 90.5 µM) | 32 (≈ 90.5 µM) | 251 to 253 |  | 
2 | COc1ccc(N2C(=O)CSC2c2c[n+]([O-])c3ccccc3[n+]2[O-])cc1 (centres unmarked) [2c, 2-(3′-P-methoxyphenyl-4′(5H)-thiazolidinone)-quinoxaline-1,4-di-N-oxide] | 64 (≈ 173 µM) | 12.5 | 12.5 | 33.9 | 32 (≈ 86.6 µM) | 32 (≈ 86.6 µM) | > 64 | 255 to 257 |  | 
3 | O=C1CSC(c2c[n+]([O-])c3ccccc3[n+]2[O-])N1C1CC1 (centres unmarked) [2f, 2-(3′-cyclopropyl-4′(5H)-thiazolidinone)-quinoxaline-1,4-di-N-oxide] | 32 (≈ 105 µM) | 25 | 25 | 82.4 | 16 (≈ 52.7 µM) | 64 (≈ 211 µM) | 64 (≈ 211 µM) | 249 to 252 |  | 
4 | Cc1ccc2c(c1)[n+]([O-])c(C1SCC(=O)N1c1ccccc1)c[n+]2[O-] (centres unmarked) [2g, 7-CH3-2-(3′-phenyl-4′(5H)-thiazolidinone)-quinoxaline-1,4-di-N-oxide] | 32 (≈ 90.5 µM) | 12.5 | 12.5 | 35.4 | 16 (≈ 45.3 µM) | 32 (≈ 90.5 µM) | 32 (≈ 90.5 µM) | 255 to 257 |  | 
5 | Cc1ccc(N2C(=O)CSC2c2c[n+]([O-])c3ccc(C)cc3[n+]2[O-])cc1 (centres unmarked) [2h, 7-CH3-2-(3′-P-methylphenyl-4′(5H)-thiazolidinone)-quinoxaline-1,4-di-N-oxide] | 32 (≈ 87.1 µM) | 25 | 25 | 68.1 | 8 (≈ 21.8 µM) | 32 (≈ 87.1 µM) | 64 (≈ 174 µM) | 257 to 259 |  | 
6 | COc1ccc(N2C(=O)CSC2c2c[n+]([O-])c3ccc(C)cc3[n+]2[O-])cc1 (centres unmarked) [2i, 7-CH3-2-(3′-P-methoxyphenyl-4′(5H)-thiazolidinone)-quinoxaline-1,4-di-N-oxide] | 64 (≈ 167 µM) | 50 | 50 | 131 | 32 (≈ 83.5 µM) | 16 (≈ 41.7 µM) | > 64 | 255 to 259 |  | 
7 | COc1ccc2c(c1)[n+]([O-])c(C1SCC(=O)N1c1ccccc1)c[n+]2[O-] (centres unmarked) [2l, 7-OMe-2-(3′-phenyl-4′(5H)-thiazolidinone)-quinoxaline-1,4-di-N-oxide] | 64 (≈ 173 µM) | 100 | 100 | 271 | 32 (≈ 86.6 µM) | > 64 | > 64 | 254 to 258 |  | 
8 | COc1ccc2c(c1)[n+]([O-])c(C1SCC(=O)N1c1ccc(C)cc1)c[n+]2[O-] (centres unmarked) [2m, 7-OMe-2-(3′-P-methylphenyl-4′(5H)-thiazolidinone)-quinoxaline-1,4-di-N-oxide] | > 64 | 100 | 100 | 261 | 64 (≈ 167 µM) | > 64 | > 64 | 257 to 259 |  | 
9 | COc1ccc(N2C(=O)CSC2c2c[n+]([O-])c3ccc(OC)cc3[n+]2[O-])cc1 (centres unmarked) [2n, 7-OMe-2-(3′-P-methoxyphenyl-4′(5H)-thiazolidinone)-quinoxaline-1,4-di-N-oxide] | > 64 | 200 | 200 | 501 | 64 (≈ 160 µM) | > 64 | > 64 | 258 to 260 |  | 
10 | COc1ccc2c(c1)[n+]([O-])c(C1SCC(=O)N1c1ccc(F)cc1)c[n+]2[O-] (centres unmarked) [2o, 7-OMe-2-(3′-P-fluorophenyl-4′(5H)-thiazolidinone)-quinoxaline-1,4-di-N-oxide] | 64 (≈ 165 µM) | 50 | 50 | 129 | 64 (≈ 165 µM) | 32 (≈ 82.6 µM) | 64 (≈ 165 µM) | 255 to 257 |  | 
11 | COc1ccc2c(c1)[n+]([O-])c(C1SCC(=O)N1c1ccc(Cl)cc1)c[n+]2[O-] (centres unmarked) [2p, 7-OMe-2-(3′-P-chlorophenyl-4′(5H)-thiazolidinone)-quinoxaline-1,4-di-N-oxide] | 64 (≈ 158 µM) | 50 | 50 | 124 | 64 (≈ 158 µM) | 32 (≈ 79.2 µM) | > 64 | 253 to 256 |  | 
12 | Cc1ccc(N2C(=O)CSC2c2c[n+]([O-])c3ccc(F)cc3[n+]2[O-])cc1 (centres unmarked) [2r, 7-F-2-(3′-P-methylphenyl-4′(5H)-thiazolidinone)-quinoxaline-1,4-di-N-oxide] | 8 (≈ 21.5 µM) | 12.5 | 12.5 | 33.7 | 8 (≈ 21.5 µM) | 16 (≈ 43.1 µM) | 8 (≈ 21.5 µM) | 249 to 251 |  | 
13 | COc1ccc(N2C(=O)CSC2c2c[n+]([O-])c3ccc(F)cc3[n+]2[O-])cc1 (centres unmarked) [2s, 7-F-2-(3′-P-methoxyphenyl-4′(5H)-thiazolidinone)-quinoxaline-1,4-di-N-oxide] | 8 (≈ 20.7 µM) | 25 | 25 | 64.6 | 8 (≈ 20.7 µM) | 8 (≈ 20.7 µM) | 8 (≈ 20.7 µM) | 251 to 253 |  | 
14 | COc1ccc(N2C(=O)CSC2c2c[n+]([O-])c3ccc(Cl)cc3[n+]2[O-])cc1 (centres unmarked) [2x, 7-Cl-2-(3′-P-methoxyphenyl-4′(5H)-thiazolidinone)-quinoxaline-1,4-di-N-oxide] | 8 (≈ 19.8 µM) | 12.5 | 12.5 | 31 | 8 (≈ 19.8 µM) | 8 (≈ 19.8 µM) | 8 (≈ 19.8 µM) | 252 to 254 |  | 
15 | CO[C@H]1/C=C/O[C@@]2(C)Oc3c(C)c(O)c4c(O)c(c(/C=N/N5CCN(C)CC5)c(O)c4c3C2=O)NC(=O)/C(C)=C\C=C\[C@H](C)[C@H](O)[C@@H](C)[C@@H](O)[C@@H](C)[C@H](OC(C)=O)[C@@H]1C [RMP, Rifampicin, reference compound] |  |  |  |  |  |  |  |  | 0.125 | 
16 | N=C1NC(=O)/C(=C/c2c[n+]([O-])c3ccccc3[n+]2[O-])S1 [V, 2-(2′-iminothiazolidin-4′-one)-quinoxaline-1,4-di-N-oxide] |  | > 50 |  |  |  |  |  |  |  | >50
17 | O=C1CSC(c2c[n+]([O-])c3ccccc3[n+]2[O-])N1 (centres unmarked) [VI, 2-(4'(5H)-thiazolone)-quinoxaline-1,4-di-N-oxide] |  | 6.25 |  |  |  |  |  |  |  | 
